Measured values reported in article PMC6193938, “Characterization of a novel AICARFT inhibitor which potently elevates ZMP and has anti-tumor activity in murine models” (Scientific Reports, 2018).

What was measured:
Assay in all cases: CEREP protein kinase assay
Format in all cases: biochemical
CDK2 = target: T1, CDK2 (Homo sapiens, UniProt P24941)
T1 construct: purchased CEREP Panlabs (Eurofins)

CDK7 = target: T2, CDK7 (Homo sapiens, UniProt P50613)
T2 construct: purchased CEREP Panlabs (Eurofins)
T2 sequence (P50613 whole entry): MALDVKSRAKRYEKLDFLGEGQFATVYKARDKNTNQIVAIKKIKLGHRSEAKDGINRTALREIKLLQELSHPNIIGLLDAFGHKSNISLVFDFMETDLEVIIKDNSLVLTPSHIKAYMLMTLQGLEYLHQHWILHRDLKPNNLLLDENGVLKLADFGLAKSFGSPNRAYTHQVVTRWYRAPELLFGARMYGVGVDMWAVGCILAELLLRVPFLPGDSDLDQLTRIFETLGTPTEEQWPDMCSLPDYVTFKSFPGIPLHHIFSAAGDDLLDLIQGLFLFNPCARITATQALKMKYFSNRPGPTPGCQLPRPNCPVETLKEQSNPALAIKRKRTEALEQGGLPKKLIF
T2 sequence (P51946 whole entry partner): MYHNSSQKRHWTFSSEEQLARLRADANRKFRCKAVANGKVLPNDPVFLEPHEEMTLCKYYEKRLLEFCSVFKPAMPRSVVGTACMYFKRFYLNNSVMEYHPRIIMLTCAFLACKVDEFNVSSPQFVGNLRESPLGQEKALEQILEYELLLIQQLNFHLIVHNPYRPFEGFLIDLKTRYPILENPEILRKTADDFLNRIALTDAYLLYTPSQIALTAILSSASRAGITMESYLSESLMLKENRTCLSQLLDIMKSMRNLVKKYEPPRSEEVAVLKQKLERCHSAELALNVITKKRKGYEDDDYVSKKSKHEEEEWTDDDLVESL
T2 sequence (P51948 whole entry partner): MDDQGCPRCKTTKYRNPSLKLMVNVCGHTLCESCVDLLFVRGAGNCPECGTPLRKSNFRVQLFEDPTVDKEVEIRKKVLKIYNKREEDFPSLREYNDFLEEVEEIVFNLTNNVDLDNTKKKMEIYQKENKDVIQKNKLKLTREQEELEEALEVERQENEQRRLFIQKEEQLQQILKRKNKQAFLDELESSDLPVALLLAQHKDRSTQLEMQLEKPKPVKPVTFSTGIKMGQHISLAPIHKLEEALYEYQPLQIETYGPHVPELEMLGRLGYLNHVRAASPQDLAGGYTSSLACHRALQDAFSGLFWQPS

EPHA5 = target: T3, EPHA5 (Homo sapiens, UniProt P54756)
T3 construct: purchased CEREP Panlabs (Eurofins)
T3 sequence (P54756 25-1037): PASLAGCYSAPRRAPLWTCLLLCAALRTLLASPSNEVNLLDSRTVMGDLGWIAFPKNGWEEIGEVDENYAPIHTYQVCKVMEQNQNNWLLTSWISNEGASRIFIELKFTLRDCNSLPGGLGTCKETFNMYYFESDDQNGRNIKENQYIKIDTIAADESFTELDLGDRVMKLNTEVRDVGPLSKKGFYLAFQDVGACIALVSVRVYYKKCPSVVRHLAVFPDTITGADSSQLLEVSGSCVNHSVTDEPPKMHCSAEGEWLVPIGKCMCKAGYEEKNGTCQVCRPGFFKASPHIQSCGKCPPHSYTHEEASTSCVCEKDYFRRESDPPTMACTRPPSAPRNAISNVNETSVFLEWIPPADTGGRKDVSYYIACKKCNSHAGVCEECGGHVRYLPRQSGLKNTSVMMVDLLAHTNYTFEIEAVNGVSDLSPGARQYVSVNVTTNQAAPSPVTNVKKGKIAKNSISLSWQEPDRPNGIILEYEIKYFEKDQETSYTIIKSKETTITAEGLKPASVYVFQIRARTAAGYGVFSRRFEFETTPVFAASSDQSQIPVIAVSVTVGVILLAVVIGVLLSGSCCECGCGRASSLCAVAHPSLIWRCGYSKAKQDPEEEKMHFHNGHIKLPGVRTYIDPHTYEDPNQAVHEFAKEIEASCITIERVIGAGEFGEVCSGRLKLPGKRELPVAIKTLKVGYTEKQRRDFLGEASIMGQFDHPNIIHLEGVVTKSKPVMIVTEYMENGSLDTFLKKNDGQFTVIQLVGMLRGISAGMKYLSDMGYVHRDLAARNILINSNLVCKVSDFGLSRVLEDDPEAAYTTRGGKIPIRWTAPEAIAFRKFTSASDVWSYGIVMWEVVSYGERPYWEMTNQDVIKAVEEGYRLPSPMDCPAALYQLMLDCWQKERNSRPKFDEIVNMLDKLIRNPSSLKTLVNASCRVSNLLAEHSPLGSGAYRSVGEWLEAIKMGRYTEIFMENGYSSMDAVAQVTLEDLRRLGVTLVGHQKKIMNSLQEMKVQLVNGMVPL

FLT3 = target: T4, FLT3 (Homo sapiens, UniProt P36888)
T4 construct: purchased CEREP Panlabs (Eurofins)
T4 sequence (P36888 27-993): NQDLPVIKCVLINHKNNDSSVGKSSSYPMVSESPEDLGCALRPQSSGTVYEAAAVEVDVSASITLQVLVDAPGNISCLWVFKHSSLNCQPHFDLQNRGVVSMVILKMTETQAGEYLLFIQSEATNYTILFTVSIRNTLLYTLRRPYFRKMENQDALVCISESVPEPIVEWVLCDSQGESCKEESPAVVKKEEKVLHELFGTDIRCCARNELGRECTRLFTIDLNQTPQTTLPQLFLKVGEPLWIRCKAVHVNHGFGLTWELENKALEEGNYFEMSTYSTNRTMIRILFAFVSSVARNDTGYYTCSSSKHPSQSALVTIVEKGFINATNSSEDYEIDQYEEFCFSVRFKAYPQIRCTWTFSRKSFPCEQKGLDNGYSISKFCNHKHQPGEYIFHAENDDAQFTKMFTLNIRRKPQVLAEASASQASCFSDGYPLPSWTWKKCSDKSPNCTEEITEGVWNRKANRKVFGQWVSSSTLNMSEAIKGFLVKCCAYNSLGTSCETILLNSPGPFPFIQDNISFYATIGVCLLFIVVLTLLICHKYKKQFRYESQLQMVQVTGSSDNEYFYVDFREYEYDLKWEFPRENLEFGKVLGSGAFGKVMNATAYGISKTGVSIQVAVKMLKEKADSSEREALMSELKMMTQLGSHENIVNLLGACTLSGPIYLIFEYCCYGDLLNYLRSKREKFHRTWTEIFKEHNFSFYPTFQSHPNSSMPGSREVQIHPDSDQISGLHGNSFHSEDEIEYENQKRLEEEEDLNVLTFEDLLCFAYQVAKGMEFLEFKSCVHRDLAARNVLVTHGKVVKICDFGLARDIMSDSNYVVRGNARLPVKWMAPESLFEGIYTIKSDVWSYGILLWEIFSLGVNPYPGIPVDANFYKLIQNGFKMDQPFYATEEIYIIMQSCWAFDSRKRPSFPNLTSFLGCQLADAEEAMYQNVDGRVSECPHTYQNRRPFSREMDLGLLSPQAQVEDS

JAK1 = target: T5, JAK1 (Homo sapiens, UniProt P23458)
T5 construct: purchased CEREP Panlabs (Eurofins)
T5 sequence (P23458 whole entry): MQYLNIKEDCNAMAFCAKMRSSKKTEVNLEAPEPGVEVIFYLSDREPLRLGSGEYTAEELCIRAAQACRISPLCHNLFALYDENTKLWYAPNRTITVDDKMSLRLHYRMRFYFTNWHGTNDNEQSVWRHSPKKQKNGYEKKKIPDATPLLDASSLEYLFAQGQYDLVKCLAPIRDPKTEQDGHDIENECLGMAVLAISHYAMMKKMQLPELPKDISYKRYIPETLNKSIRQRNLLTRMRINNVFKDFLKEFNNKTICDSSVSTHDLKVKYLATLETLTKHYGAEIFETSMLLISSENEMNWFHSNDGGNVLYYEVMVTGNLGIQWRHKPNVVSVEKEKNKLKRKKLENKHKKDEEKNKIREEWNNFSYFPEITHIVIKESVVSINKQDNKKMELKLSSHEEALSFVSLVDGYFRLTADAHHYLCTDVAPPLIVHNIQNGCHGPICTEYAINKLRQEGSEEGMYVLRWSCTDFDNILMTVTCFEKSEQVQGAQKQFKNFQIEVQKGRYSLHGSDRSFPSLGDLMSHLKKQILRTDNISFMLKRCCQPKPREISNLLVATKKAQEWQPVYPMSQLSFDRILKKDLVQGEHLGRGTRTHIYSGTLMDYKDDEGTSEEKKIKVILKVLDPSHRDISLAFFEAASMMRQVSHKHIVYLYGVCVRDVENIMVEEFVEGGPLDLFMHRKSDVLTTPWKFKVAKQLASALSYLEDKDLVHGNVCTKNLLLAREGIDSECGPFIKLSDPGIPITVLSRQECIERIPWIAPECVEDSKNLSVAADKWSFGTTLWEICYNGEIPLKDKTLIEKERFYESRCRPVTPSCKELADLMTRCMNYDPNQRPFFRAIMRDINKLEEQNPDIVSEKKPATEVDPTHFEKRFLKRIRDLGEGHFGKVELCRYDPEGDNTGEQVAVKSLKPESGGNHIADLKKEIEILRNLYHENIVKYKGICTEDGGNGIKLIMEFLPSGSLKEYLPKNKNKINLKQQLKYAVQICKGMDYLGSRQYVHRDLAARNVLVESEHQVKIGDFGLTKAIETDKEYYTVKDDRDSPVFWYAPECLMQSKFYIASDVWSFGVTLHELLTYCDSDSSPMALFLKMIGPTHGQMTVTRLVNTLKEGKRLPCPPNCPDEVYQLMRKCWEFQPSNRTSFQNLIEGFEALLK

P38a = target: T6, P38a (Homo sapiens, UniProt Q16539)
T6 construct: purchased CEREP Panlabs (Eurofins)
T6 sequence (Q16539 whole entry): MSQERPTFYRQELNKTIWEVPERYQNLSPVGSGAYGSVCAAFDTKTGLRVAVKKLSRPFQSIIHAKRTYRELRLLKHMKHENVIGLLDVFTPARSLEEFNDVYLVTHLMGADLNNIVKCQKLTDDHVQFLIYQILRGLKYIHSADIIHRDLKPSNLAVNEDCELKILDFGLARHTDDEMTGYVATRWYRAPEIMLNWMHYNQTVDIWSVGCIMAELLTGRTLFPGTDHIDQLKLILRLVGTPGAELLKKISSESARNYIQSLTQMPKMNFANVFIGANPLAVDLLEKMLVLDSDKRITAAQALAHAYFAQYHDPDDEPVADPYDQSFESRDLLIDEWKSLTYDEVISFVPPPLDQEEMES

STK33 = target: T7, STK33 (Homo sapiens, UniProt Q9BYT3)
T7 construct: purchased CEREP Panlabs (Eurofins)
T7 sequence (Q9BYT3 whole entry): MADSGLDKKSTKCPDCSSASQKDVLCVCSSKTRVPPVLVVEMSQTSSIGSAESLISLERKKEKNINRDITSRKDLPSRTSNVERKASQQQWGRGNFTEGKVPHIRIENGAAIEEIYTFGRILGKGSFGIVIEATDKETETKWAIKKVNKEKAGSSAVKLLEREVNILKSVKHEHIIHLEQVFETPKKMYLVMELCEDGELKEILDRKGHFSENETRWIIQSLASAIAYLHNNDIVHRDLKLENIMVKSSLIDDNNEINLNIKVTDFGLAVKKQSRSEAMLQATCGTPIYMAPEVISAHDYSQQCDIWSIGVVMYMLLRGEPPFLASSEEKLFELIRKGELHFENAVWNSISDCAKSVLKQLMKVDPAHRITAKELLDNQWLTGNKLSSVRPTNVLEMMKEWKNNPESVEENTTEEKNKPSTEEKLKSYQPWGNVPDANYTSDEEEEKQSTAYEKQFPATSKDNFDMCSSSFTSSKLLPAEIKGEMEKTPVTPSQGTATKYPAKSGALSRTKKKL

TNK1 = target: T8, TNK1 (Homo sapiens, UniProt Q13470)
T8 construct: purchased CEREP Panlabs (Eurofins)
T8 sequence (Q13470 1-666): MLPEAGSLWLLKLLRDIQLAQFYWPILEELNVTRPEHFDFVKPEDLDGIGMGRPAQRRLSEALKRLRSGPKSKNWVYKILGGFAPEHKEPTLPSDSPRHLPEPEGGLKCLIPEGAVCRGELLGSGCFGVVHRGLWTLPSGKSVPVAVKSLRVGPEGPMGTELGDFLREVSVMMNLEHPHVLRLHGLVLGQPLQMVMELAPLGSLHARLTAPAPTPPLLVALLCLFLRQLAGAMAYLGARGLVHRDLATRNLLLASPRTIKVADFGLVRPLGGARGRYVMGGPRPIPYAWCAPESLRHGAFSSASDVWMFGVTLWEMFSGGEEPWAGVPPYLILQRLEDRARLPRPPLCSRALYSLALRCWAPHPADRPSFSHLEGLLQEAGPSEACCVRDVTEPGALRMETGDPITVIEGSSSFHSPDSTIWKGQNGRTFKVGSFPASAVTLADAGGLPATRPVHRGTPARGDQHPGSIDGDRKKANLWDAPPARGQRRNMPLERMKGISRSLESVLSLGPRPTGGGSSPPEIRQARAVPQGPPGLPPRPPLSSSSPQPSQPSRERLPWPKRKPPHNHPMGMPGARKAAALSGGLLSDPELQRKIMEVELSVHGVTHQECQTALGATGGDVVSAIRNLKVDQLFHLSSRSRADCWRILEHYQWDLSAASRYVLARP

## O=c1[nH]ccc2cc(F)c(NS(=O)(=O)c3ccc(N4CC[C@@H](O)C4)s3)cc12 [LSN3213128, N-(6-Fluoro-1-oxo-1,2-dihydroisoquinolin-7-yl)-5-[(3R)-3-hydroxypyrrolidin-1-yl]thiophene-2-sulfonamide]
CDK2; @ 0.2 uM
  inhibition at 0.2 µM: -10.2%
CDK2; @ 2 uM
  inhibition at 2 µM: -1.29%
CDK2; @ 20 uM
  inhibition at 20 µM: 29.2%
CDK7; @ 0.2 uM
  inhibition at 0.2 µM: -17%
CDK7; @ 2 uM
  inhibition at 2 µM: 2.91%
CDK7; @ 20 uM
  inhibition at 20 µM: 15%
EPHA5; @ 0.2 uM
  inhibition at 0.2 µM: 3.96%
EPHA5; @ 2 uM
  inhibition at 2 µM: 9.58%
EPHA5; @ 20 uM
  inhibition at 20 µM: 19.4%
FLT3; @ 0.2 uM
  inhibition at 0.2 µM: -12.1%
FLT3; @ 2 uM
  inhibition at 2 µM: 10.7%
FLT3; @ 20 uM
  inhibition at 20 µM: 53.2%
JAK1; @ 0.2 uM
  inhibition at 0.2 µM: -1.48%
JAK1; @ 2 uM
  inhibition at 2 µM: 5.53%
JAK1; @ 20 uM
  inhibition at 20 µM: 46.6%
P38a; @ 0.2 uM
  inhibition at 0.2 µM: -2.24%
P38a; @ 2 uM
  inhibition at 2 µM: -2.52%
P38a; @ 20 uM
  inhibition at 20 µM: 32.3%
STK33; @ 0.2 uM
  inhibition at 0.2 µM: -5.61%
STK33; @ 2 uM
  inhibition at 2 µM: 15.3%
STK33; @ 20 uM
  inhibition at 20 µM: -1.42%
TNK1; @ 0.2 uM
  inhibition at 0.2 µM: -11.5%
TNK1; @ 2 uM
  inhibition at 2 µM: -5.26%
TNK1; @ 20 uM
  inhibition at 20 µM: -3.7%
